Patent publication US20240246992A1, “MACROCYCLIC LRRK2 KINASE INHIBITORS” (LES LABORATOIRES SERVIER, priority 2021, published 2024)

target: human recombinant LRRK2 protein (Homo sapiens, UniProt Q5S007); test: LRRK2 kinase activity assay (ADP-Glo, LRRKtide peptide); type: biochemical; conditions: human recombinant LRRK2 wt, LRRKtide peptide and ATP, 1 h at 37° C.
Procedure, shortened: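 Human recombinant LRRK2 reacted with LRRKtide peptide and ATP for 1 h at 37 °C in the presence of compound. ADP formed measured by ADP-Glo luminescence; IC50 fitted from 10 concentrations run in duplicate.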

Sequence of human recombinant LRRK2 protein (Q5S007 whole entry): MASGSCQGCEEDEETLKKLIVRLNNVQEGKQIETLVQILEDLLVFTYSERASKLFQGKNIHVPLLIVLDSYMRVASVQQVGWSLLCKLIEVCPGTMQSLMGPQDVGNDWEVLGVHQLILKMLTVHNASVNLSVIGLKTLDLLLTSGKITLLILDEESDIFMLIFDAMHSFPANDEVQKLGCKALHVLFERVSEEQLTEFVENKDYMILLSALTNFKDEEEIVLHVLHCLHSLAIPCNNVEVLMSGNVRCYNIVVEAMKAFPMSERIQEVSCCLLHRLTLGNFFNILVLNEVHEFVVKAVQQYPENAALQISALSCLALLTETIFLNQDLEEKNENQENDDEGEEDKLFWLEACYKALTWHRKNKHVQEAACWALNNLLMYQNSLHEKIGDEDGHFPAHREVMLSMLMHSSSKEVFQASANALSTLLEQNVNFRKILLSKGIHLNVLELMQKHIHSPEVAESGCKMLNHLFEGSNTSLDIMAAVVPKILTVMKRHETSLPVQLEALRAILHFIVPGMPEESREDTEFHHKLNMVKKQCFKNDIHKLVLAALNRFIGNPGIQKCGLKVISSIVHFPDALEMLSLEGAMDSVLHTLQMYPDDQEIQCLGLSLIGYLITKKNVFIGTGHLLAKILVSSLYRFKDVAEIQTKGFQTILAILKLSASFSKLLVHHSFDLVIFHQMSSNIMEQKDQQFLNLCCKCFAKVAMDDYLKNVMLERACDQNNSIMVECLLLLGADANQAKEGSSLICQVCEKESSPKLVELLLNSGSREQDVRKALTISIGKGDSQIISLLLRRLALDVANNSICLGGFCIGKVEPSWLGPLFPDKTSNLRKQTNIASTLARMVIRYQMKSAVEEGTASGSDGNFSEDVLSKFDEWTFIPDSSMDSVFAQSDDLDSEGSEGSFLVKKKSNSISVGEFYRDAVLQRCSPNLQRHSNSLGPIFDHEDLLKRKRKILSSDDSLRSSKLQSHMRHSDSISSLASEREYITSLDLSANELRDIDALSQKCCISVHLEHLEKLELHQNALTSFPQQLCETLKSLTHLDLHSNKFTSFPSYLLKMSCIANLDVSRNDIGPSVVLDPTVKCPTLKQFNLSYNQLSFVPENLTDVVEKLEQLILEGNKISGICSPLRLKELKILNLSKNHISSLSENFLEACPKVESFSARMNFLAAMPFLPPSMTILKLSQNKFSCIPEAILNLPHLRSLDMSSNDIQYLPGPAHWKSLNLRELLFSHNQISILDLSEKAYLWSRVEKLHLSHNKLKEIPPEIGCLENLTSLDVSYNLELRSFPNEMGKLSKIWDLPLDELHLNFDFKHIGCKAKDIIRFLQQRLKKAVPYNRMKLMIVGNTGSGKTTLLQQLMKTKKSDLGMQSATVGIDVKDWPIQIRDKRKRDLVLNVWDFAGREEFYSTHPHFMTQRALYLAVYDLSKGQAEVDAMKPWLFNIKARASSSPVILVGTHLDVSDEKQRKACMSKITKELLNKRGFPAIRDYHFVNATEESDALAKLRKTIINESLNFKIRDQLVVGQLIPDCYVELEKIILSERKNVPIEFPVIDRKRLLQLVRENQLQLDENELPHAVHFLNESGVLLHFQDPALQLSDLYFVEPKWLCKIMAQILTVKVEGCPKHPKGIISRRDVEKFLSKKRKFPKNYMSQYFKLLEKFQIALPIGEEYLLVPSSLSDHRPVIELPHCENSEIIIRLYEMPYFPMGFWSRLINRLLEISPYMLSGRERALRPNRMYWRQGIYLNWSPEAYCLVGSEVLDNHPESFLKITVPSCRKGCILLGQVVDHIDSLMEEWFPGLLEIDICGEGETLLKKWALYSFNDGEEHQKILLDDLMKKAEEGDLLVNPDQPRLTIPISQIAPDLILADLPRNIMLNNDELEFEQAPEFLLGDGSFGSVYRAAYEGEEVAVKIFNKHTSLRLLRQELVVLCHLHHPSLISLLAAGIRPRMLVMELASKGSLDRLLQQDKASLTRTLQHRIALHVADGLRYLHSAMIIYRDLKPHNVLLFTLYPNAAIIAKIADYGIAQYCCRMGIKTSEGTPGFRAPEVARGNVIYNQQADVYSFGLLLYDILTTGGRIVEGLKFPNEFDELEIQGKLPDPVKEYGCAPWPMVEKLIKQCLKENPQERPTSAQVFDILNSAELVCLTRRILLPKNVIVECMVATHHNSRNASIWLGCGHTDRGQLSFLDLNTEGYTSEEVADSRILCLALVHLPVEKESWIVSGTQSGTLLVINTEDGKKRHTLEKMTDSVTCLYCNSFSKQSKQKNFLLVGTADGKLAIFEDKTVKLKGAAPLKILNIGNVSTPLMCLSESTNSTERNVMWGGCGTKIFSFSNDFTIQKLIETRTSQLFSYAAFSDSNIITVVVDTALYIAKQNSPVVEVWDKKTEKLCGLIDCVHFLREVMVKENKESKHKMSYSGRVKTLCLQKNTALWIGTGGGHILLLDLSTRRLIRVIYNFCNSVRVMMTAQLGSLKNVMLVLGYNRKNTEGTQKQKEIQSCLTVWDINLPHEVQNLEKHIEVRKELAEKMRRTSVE

Row | Structure (SMILES) | IC50
1 | COC1CN(c2cc3nc(n2)OCCOCC[C@H](C)Nc2ccc4[nH]nc-3c4c2)C1 [Example 34, (13S)-4-(3-methoxyazetidin-1-yl)-13-methyl-7,10-dioxa-5,14,19,20,23-pentaazatetracyclo[13.5.2.1^2,6.0^18,21]tricosa-1(20),2,4,6(23),15(22),16, 18(21)-heptaene] | < 10 nM
2 | C[C@H]1CCOCCOc2cccc(n2)-c2n[nH]c3ccc(cc23)O1 [Example 28, (13S)-13-methyl-7,10,14-trioxa-19,20,23-triazatetracyclo [13.5.2.1^2,6.0^18,21] tricosa-1(20),2(23),3,5,15(22),16,18(21)-heptaene] | < 10 nM
3 | O=C1COc2cc(cc(C3CCOCC3)c2)-c2n[nH]c3ccc(cc23)OCCCN1 [Example 146, 4-(oxan-4-yl)-7,14-dioxa-10,19,20-triazatetracyclo[13.5.2.1^2,6.0^18,21]tricosa-1(20),2(23),3,5,15,17,21-heptaen-9-one] | < 10 nM
4 | COCC1CCOc2ccc3[nH]nc(c3c2)-c2cccc(c2)OCC(=O)N1 (single isomer, unassigned) [Example 152, (11R) or (11S)-11-(methoxymethyl)-7,14-dioxa-10,19,20-triazatetracyclo[13.5.2.1^2,6.0^18,21]tricosa-1(20),2(23),3,5,15,17,21-heptaen-9-one] | < 100 nM
5 | O=C1COc2cc(C3=CCCOC3)cc(c2)-c2n[nH]c3ccc(cc23)OCCCN1 [Example 210, 4-(5,6-dihydro-2H-pyran-3-yl)-7,14-dioxa-10,19,20-triazatetracyclo[13.5.2.1^2,6.0^18,21]tricosa-1(20),2(23),3,5,15,17,21-heptaen-9-one] | < 10 nM
6 | C[C@H]1COCCOCCn2ccc(n2)-c2n[nH]c3ccc(cc23)O1 [Example 80, (13S)-13-methyl-8,11,14-trioxa-5,19,20,23-tetraazatetracyclo [13.5.2.1^2,5.0^18,21]tricosa-1(20),2(23),3,15(22),16,18(21)-hexaene] | < 1000 nM
7 | C[C@@H]1CCOCC[C@H](C)Oc2ccc3[nH]nc(c3c2)-c2cnn1c2 [Example 25, (6R,12S)-6,12-dimethyl-9,13-dioxa-4,5,18,19-tetraazatetracyclo[12.5.2.1^2,5.0^17,20]docosa-1(19),2(22),3,14(21),15,17(20)-hexaene] | < 100 nM
8 | c1cc2[nH]nc3c2cc1OCCCCOCCn1cc-3cn1 [Example 102, 8,13-dioxa-4,5,18,19-tetraazatetracyclo[12.5.2.1^2,5.0^17,20]docosa-1(19),2(22),3,14(21),15,17(20)-hexaene] | < 10 nM
9 | c1cc2[nH]nc3c2cc1OCCCNCC1(CC1)Oc1cncc-3c1 [Example 157, 7′,14′-dioxa-4′,10′,19′,20′-tetraazaspiro[cyclopropane-1,8′-tetracyclo[13.5.2.1^2,6.0^18,21]tricosane]-1′(20′),2′(23′),3′,5′,15′,17′,21′-heptaene] | < 10 nM
10 | C[C@H]1CCOCC[C@H](C)n2cc(cn2)-c2n[nH]c3ccc(cc23)O1 [Example 38, (6S,12S)-6,12-dimethyl-9,13-dioxa-4,5,18,19-tetraazatetracyclo [12.5.2.1^2,5.0^17,20]docosa-1(19),2(22),3,14(21),15,17(20)-hexaene] | < 10 nM
11 | C[C@@H]1CCCOC[C@@H](C)n2cc(cn2)-c2n[nH]c3ccc(cc23)O1 [Example 128, (6R,12R)-6,12-dimethyl-8,13-dioxa-4,5,18,19-tetraazatetracyclo[12.5.2.1^2,5.0^17,20]docosa-1(19),2(22),3,14(21),15,17(20)-hexaene] | < 10 nM
12 | c1cc2[nH]nc3c2cc1OCCCOCCCn1ncc-3n1 [Example 74, 9,13-dioxa-4,5,18,19,22-pentaazatetracyclo[12.5.2.1^2,5.0^17,20]docosa-1(19), 2(22),3,14(21),15,17(20)-hexaene] | < 10 nM
13 | C[C@@H]1CNCC[C@H](C)Oc2ccc3[nH]nc(c3c2)-c2cncc(c2)O1 (single isomer, unassigned) [Example 229, (8R or 8S,13S)-8,13-dimethyl-7,14-dioxa-4,10,19,20-tetraazatetracyclo[13.5.2.1^2,6.0^18,21]tricosa-1(20),2,4,6(23),15(22),16,18(21)-heptaene] | < 10 nM
14 | C[C@H]1CCNCCOc2cncc(c2)-c2n[nH]c3ccc(cc23)O1 [Example 232, (13S)-13-methyl-7,14-dioxa-4,10,19,20-tetraazatetracyclo[13.5.2.1^2,6.0^18,21]tricosa-1(20),2,4,6(23),15(22),16,18(21)-heptaene] | < 10 nM
15 | c1cc2[nH]nc3c2cc1OCCOCCCCn1cc-3cn1 [Example 104, 10,13-dioxa-4,5,18,19-tetraazatetracyclo[12.5.2.1^2,5.0^17,20]docosa-1(19),2(22),3,14(21),15,17(20)-hexaene] | < 10 nM
16 | [2H]C1([2H])OCCn2cc(cn2)-c2n[nH]c3ccc(cc23)OC[C@H](C)OC1([2H])[2H] [Example 107, (12S)-12-methyl(9,9,10,10-^2H4)-8,11,14-trioxa-4,5,19,20-tetraazatetracyclo [13.5.2.1^2,5.0^18,21]tricosa-1(20),2(23),3,15,17,21-hexaene] | < 10 nM
17 | O=C1COc2cc(Cl)cc(c2)-c2n[nH]c3ccc(cc23)OCCCN1 [Example 142, 4-chloro-7,14-dioxa-10,19,20-triazatetracyclo[13.5.2.1^2,6.0^18,21]tricosa-1(20),2,4,6(23),15,17,21-heptaen-9-one] | < 10 nM
18 | C[C@@H]1CCNC(=O)C[C@H](C)n2ncc(n2)-c2n[nH]c3ccc(cc23)O1 [Example 242] | < 10 nM
19 | C[C@@H]1CCOCC[C@H](C)n2cc(cn2)-c2n[nH]c3ccc(cc23)O1 [Example 36, (6S,12R)-6,12-dimethyl-9,13-dioxa-4,5,18,19-tetraazatetracyclo[12.5.2.1^2,5.0^17,20]docosa-1(19),2(22),3,14(21),15,17(20)-hexaene] | < 10 nM
20 | C[C@H]1COc2cc3c(n[nH]c3cn2)-c2cnn(c2)CCOCCO1 [Example 246] | < 100 nM
21 | C[C@@H]1CCN(C)CC[C@H](C)n2ncc(n2)-c2n[nH]c3ccc(cc23)O1 [Example 244, (6S,12R)-6,9,12-trimethyl-13-oxa-4,5,9,18,19,22-hexaazatetracyclo[12.5.2.1^2,5.0^17,20]docosa-1(19),2(22),3,14(21),15,17(20)-hexaene] | < 100 nM
22 | C1=C/COCCOc2ccc3[nH]nc(c3c2)-c2cnn(c2)CC/1 [Example 121, (8E)-11,14-dioxa-4,5,19,20-tetraazatetracyclo[13.5.2.1^2,5.0^18,21]tricosa-1(20),2(23),3,8,15(22),16,18(21)-heptaene] | < 10 nM
23 | C[C@@H]1CCn2cc(cn2)-c2n[nH]c3ccc(cc23)O[C@H](C)CCO1 [Example 98, (8R,12R)-8,12-dimethyl-9,13-dioxa-4,5,18,19-tetraazatetracyclo[12.5.2.1^2,5.0^17,20]docosa-1(19),2(22),3,14(21),15,17(20)-hexaene] | < 10 nM
24 | Cc1ccc2cc1OCCNCCCOc1ccc3[nH]nc-2c3c1 [Example 141, 5-methyl-7,14-dioxa-10,19,20-triazatetracyclo[13.5.2.1^2,6.0^18,21] tricosa-1(20),2,4,6(23),15,17,21-heptaene] | < 10 nM
